The subject of one assay is LOX (melanoma). The experiment in a line: In vitro growth inhibition screen (sulphorhodamine B), LOX. The assay is classed as cell-based, human. The conditions noted are these: LOX cells, incubated for 48 hours, sulphorhodamine B dye; read-out: GI50 (concentration which inhibits the cell growth by 50%), LOX Melanoma. On the procedure:
(§1) Each agent was tested over a broad concentration range (ten-fold dilutions starting from ≧100 μM to 10 nM) against 6 human cancer cell lines which was comprised of different tumor types. These are DU145 (prostate carcinoma), HT29 (colorectal adenocarcinoma), LOX (melanoma), MCF7 (breast adenocarcinoma), MCF7ADR (adriamycin resistant breast adenocarcinoma), and U251 (human glioblastoma). A standard compound doxorubicin was tested in each assay as a positive control. The cells were maintained in growing condition in RPMI 1640 medium containing 10% fetal calf serum and incubated at 37° C. under 5% CO2 atmosphere. All cell lines were inoculated onto a series of standard 96-well microtitre plate on day zero, followed by twenty four-hour incubation in the absence of test compound. The inoculation densities in the screen were as per Monk et al., (1991) J. Natl. Cancer Inst., 83, 757-766. All NCEs were dissolved in DMSO and diluted further in culture medium. An aliquot of each dilution was added to the growing cells in 96 well plates and incubated for 48 hours. After incubation, the assay was terminated by adding 50 μL of trichloroacetic acid (TCA) and incubating at 4° C. for 30 min. The precipitated cells were washed and stained with sulphorhodamine B dye for 30 min and the excess dye was washed off with acetic acid. Adsorbed dye was solubilised in Tris base (alkaline pH) and quantitated by measuring the OD at […] in ELISA READER. GI50 (concentration which inhibits the cell growth by 50%) was calculated according to Boyd and Paull, (1995) Drug Dev. Res., 34, 91-109.
(Sulforhodamine B stains cellular protein and so reports cell mass.)

Assay [1] concerns MCF7ADR (adriamycin resistant breast adenocarcinoma). Nature of the assay: In vitro growth inhibition screen (sulphorhodamine B), MCF7ADR. In kind it is cell-based, human. The settings on record: MCF7ADR cells, incubated for 48 hours, sulphorhodamine B dye; read-out: GI50 (concentration which inhibits the cell growth by 50%), MCF7ADR Adriamycin Resistant Breast adenocarcinoma. On the procedure: as §1

Assay [2] deals with HT29 (colorectal adenocarcinoma). Nature of the assay: In vitro growth inhibition screen (sulphorhodamine B), HT29. The assay is classed as cell-based, human. The conditions noted are these: HT29 cells, incubated for 48 hours, sulphorhodamine B dye; read-out: GI50 (concentration which inhibits the cell growth by 50%), HT29 Colorectal adenocarcinoma. The protocol: as §1
Assay [3] relates to MCF7 (breast adenocarcinoma). Nature of the assay: In vitro growth inhibition screen (sulphorhodamine B), MCF7. The conditions noted are these: MCF7 cells, incubated for 48 hours, sulphorhodamine B dye; read-out: GI50 (concentration which inhibits the cell growth by 50%), MCF7 Breast adenocarcinoma. In kind it is cell-based, human. The protocol: as §1
Assay [4] concerns U251 (human glioblastoma). Nature of the assay: In vitro growth inhibition screen (sulphorhodamine B), U251. The assay is classed as cell-based. The settings on record: U251 cells, incubated for 48 hours, sulphorhodamine B dye; read-out: GI50 (concentration which inhibits the cell growth by 50%), U251 Human glioblastoma astrocytoma. The protocol: as §1
The subject of assay [5] is DU145 (prostate carcinoma). The experiment in a line: In vitro growth inhibition screen (sulphorhodamine B), DU145. The conditions noted are these: DU145 cells, incubated for 48 hours, sulphorhodamine B dye; read-out: GI50 (concentration which inhibits the cell growth by 50%), DU145 Prostate carcinoma. The assay is classed as cell-based, human. The protocol: as §1

Regarding `CCCN1C(=O)[C@H](OCc2ccccc2)[C@@H](OCc2ccccc2)[C@H](OCc2ccccc2)[C@H]1CNC(=O)N1CCc2ccccc21` [Compound No. 77, 2,3,4-Tri-O-benzyl-6-N-{1,2-dihydro(2H)-indolylcarboxamido}-N-propyl-D-gluco-δ-lactam], the GI50 came to 29.5 µM with LOX (melanoma); 69.1 µM in assay [1]; 17.5 µM in assay [2]; 56.1 µM in assay [3]; 28.6 µM in assay [4]; 49.4 µM in assay [5].
Take `CCCN1C(=O)[C@H](OCc2ccccc2)[C@@H](OCc2ccccc2)[C@H](OCc2ccccc2)[C@H]1CNC(=O)Nc1ccc(C)cc1` [Compound No. 6, 2,3,4-Tri-O-benzyl-6-N-{[p-tolyl]aminocarbonylamino}-N-propyl-D-gluco-δ-lactam]: the GI50 in the assay with LOX (melanoma) was found to be 67.4 µM; in assay [1], 110 µM; in assay [2] it was 47.2 µM; in assay [3], 433 µM; in assay [4], 82.3 µM; in assay [5], 50.1 µM.
As for `CCCN1C[C@H](OCc2ccccc2)[C@@H](OCc2ccccc2)[C@H](OCc2ccccc2)[C@H]1CNC(=O)Nc1ccc(F)cc1F` [Compound No. 37], the GI50 is 5.1 µM with LOX (melanoma); 17.3 µM in assay [1]; 2.8 µM in assay [2]; 10.3 µM in assay [3]; 15.4 µM in assay [4]; 11.1 µM in assay [5].
As to `CCCN1C(=O)C(OCc2ccccc2)C(OCc2ccccc2)C(OCc2ccccc2)C1CNC(=O)NS(=O)(=O)c1ccc(Cl)cc1` [Compound No. 12, 2,3,4-Tri-O-benzyl-6-N-{[p-chlorophenylsulfonyl]aminocarbonylamino}-N-propyl-D-gluco-δ-lactam], the GI50 was 41.6 µM in the assay with LOX (melanoma); 35 µM in assay [1]; 29.3 µM in assay [2]; 88.2 µM in assay [3]; 61.8 µM in assay [4]; 48.7 µM in assay [5].
Turning to `C=CCN1C[C@H](OCc2ccccc2)[C@@H](OCc2ccccc2)[C@H](OCc2ccccc2)[C@H]1COC(=O)Nc1ccc(Cl)cc1` [Compound No. 44, N-Allyl-2,3,4-tri-O-benzyl-6-{p-chlorophenylcarbamate}-1,5-dideoxy-1,5-imino glucitol], the GI50 came to 8.7 µM in the assay on LOX (melanoma); 7.5 µM in assay [1]; 29.2 µM in assay [2]; 2.3 µM in assay [3]; 29.8 µM in assay [4]; 88.5 µM in assay [5].
In the case of `CCCN1C(=O)[C@H](O)[C@@H](O)[C@H](O)[C@H]1CNC(=O)Nc1ccc(F)cc1` [Compound No. 29, 6-N-{[4-Fluorophenyl]aminocarbonylamino}-N-propyl-D-gluco-δ-lactam], the GI50 in the assay on LOX (melanoma) came to 290 µM; in assay [1] it was 165 µM; in assay [2] it was 58.6 µM; in assay [3] it was 85.8 µM; in assay [4], 87 µM; in assay [5], 280 µM.
On to `CCCN1C(=O)[C@H](OCc2ccccc2)[C@@H](OCc2ccccc2)[C@H](OCc2ccccc2)[C@H]1CNC(=S)Nc1ccccc1` [Compound No. 9, 2,3,4-Tri-O-benzyl-6-N-{[phenyl]aminothiocarbonylamino}-N-propyl-D-gluco-δ-lactam], for which the GI50 with LOX (melanoma) was determined as 6.9 µM; in assay [1], 13.9 µM; in assay [2], 40 µM; in assay [3] it was 35.8 µM; in assay [4], 20.2 µM; in assay [5], 22.1 µM.
As to `CCCN1C(=O)[C@H](O)[C@@H](O)[C@H](O)[C@H]1Cn1cncn1` [Compound No. 70, 6-Triazolyl-N-propyl-D-gluco-δ-lactam], the GI50 with LOX (melanoma) was found to be 232 µM; in assay [1], 894 µM; in assay [2], 302 µM; in assay [3] it was 340 µM; in assay [4] it was 516 µM; in assay [5], 252 µM.
Turning to `CCCN1C(=O)C(OCc2ccccc2)C(OCc2ccccc2)C(OCc2ccccc2)C1CNC(=O)Nc1ccc(Cl)cc1Cl` [Compound No. 19, 2,3,4-Tri-O-benzyl-6-N-{[2,4-dichlorophenyl]aminocarbonylamino}-N-propyl-D-gluco-δ-lactam], the GI50 is 81.8 µM in the assay on LOX (melanoma); greater than 592 µM in assay [1]; greater than 592 µM in assay [2]; greater than 592 µM in assay [3]; greater than 592 µM in assay [4]; greater than 592 µM in assay [5].
As for “N-{4-[Phenyl]piperazinyl carboxamido}-D-gluco-δ-lactam [Compound No. 80]”, the GI50 in the assay on LOX (melanoma) worked out at 75.9 µM; in assay [1], 60.1 µM; in assay [2], 100 µM; in assay [3], 69.4 µM; in assay [4] it was 59.9 µM; in assay [5], 90.7 µM.
On to `C=CCN1C(=O)[C@H](OCc2ccccc2)[C@@H](OCc2ccccc2)[C@H](OCc2ccccc2)[C@H]1COC(=S)Nc1ccc2ccccc2c1` [Compound No. 42, N-Allyl-2,3,4-Tri-O-benzyl-6-(2-naphthylithiocarbamate)-D-gluco-δ-lactam], for which the GI50 in the assay on LOX (melanoma) was greater than 373 µM; in assay [1], greater than 373 µM; in assay [2], 103 µM; in assay [3], 232 µM; in assay [4], greater than 373 µM; in assay [5], 175 µM.
Consider `C=CCN1C(=O)C(OCc2ccccc2)C(OCc2ccccc2)C(OCc2ccccc2)C1CN1C(=O)CCC1=O` [Compound No. 84, N-Allyl-2,3,4-tri-O-benzyl-6-(2,5-diketopyrrolidino)-D-gluco-δ-lactam], for which the GI50 is 5.9 µM with LOX (melanoma); 6.4 µM in assay [1]; 18.7 µM in assay [2]; 5.3 µM in assay [3]; 9.3 µM in assay [4]; 18.3 µM in assay [5].
For the compound `CCCN1C[C@H](OCc2ccccc2)[C@@H](OCc2ccccc2)[C@H](OCc2ccccc2)[C@H]1CNC(=O)Nc1ccc(Cl)cc1` [Compound No. 36], the GI50 came out at 0.9 µM in the assay on LOX (melanoma); 19.1 µM in assay [1]; 0.8 µM in assay [2]; 0.3 µM in assay [3]; 11.7 µM in assay [4]; 16.7 µM in assay [5].
`CCCN1C(=O)[C@H](OCc2ccccc2)[C@@H](OCc2ccccc2)[C@H](OCc2ccccc2)[C@H]1CNC(=S)NC(C)C` [Compound No. 8, 2,3,4-Tri-O-benzyl-6-N-{[isopropyl]aminothiocarbonylamino}-N-propyl-D-gluco-δ-lactam]: the GI50 with LOX (melanoma) was found to be 2.2 µM; in assay [1], 0.6 µM; in assay [2], 9 µM; in assay [3], 1.3 µM; in assay [4], 2.5 µM; in assay [5], 3.4 µM.
On to `CCCN1C(=O)[C@H](OCc2ccccc2)[C@@H](OCc2ccccc2)[C@H](OCc2ccccc2)[C@H]1CNC(=O)CN1CCN(c2c(CC)cccc2CC)CC1` [Compound No. 62, 2,3,4-Tri-O-benzyl-6-N-{2-[N-(2,6-diethylphenyl)piperazinyl]acetyl}-N-propyl-D-gluco-δ-lactam], for which the GI50 in the assay on LOX (melanoma) is 37.7 µM; in assay [1] it was greater than 402 µM; in assay [2], 24.9 µM; in assay [3] it was greater than 402 µM; in assay [4], 30 µM; in assay [5], 24.3 µM.
Regarding `C=CCN1C(=O)[C@H](OCc2ccccc2)[C@@H](OCc2ccccc2)[C@H](OCc2ccccc2)[C@H]1CN1C(=O)c2ccccc2C1=O` [Compound No. 83, N-Allyl-2,3,4-tri-O-benzyl-6-(1H-isoindole-1,3(2H)-diketo)-D-gluco-δ-lactam], the GI50 was 51.4 µM in the assay with LOX (melanoma); 6.7 µM in assay [1]; 80.1 µM in assay [2]; 13.1 µM in assay [3]; greater than 140 µM in assay [4]; 55.2 µM in assay [5].
`CCCN1C(=O)C(OCc2ccccc2)C(OCc2ccccc2)C(OCc2ccccc2)C1CNC(=O)CN1CCN(C)CC1` [Compound No. 59, 2,3,4-Tri-O-benzyl-6-N-{2-[N-(methyl)piperazin-1-yl]acetyl}-N-propyl-D-gluco-δ-lactam]: the GI50 with LOX (melanoma) stood at 3.8 µM; in assay [1], 25.3 µM; in assay [2] it was 1.9 µM; in assay [3], 8.1 µM; in assay [4], 12.6 µM; in assay [5] it was 12.2 µM.

Values taken from patent US20060241114A1, “Derivatives of azasugars as anticancer agents” (priority 2003, published 2006).
